Laboratory results as given in ChEMBL document CHEMBL5715940 (Curr Biol, 2007).
Activity calls are given as the source filed them. The rule behind the calls is not given here. Residues, ends and D or L forms follow the SMILES beside them. *: point of attachment. Cbz = O=C(OCc1ccccc1)*

Experiments:
[1] = test system: HeLa; assay: Induction of mitotic arrest in human HeLa cells with expressing H2B-GFP assessed as cells formed multilobed nuclei at 100 nM; assay type: functional, cell-based
[2] = biological target: Serine/threonine-protein kinase PLK1 (Homo sapiens) (UniProt P53350); assay: Inhibition of Plk1 in human HeLa cells assessed as low level of cyclin B in total lysates of cells arrested in mitosis at 100 nM for 13 hr after the second thymidine release by immunoblot analysis
[3] = biological target: Serine/threonine-protein kinase PLK1 (Homo sapiens) (UniProt P53350); assay: Inhibition of Plk1 in human HeLa cells assessed as high level of cyclin B in total lysates of cells arrested in mitosis at 50 ng/ml for 13 hr after the second thymidine release by immunoblot analysis
[4] = test system: HeLa; assay: Induction of mitotic arrest in human HeLa cells s stably expressing CENPA-GFP assessed as attachment of kinetochores to microtubule at 10 uM for 2 hrs by live cell imaging analysis; assay type: functional, cell-based
[5] = test system: HeLa; assay: Induction of mitotic arrest in human HeLa cells assessed as weakly centrosome in prometaphase arrested cells at 100 nM for 2 hrs by immunofluorescence analysis; assay type: functional, cell-based
[6] = test system: HeLa; assay: Induction of mitotic arrest in human HeLa cells s stably expressing CENPA-GFP assessed as microtubules instantaneously organized to monopolar spindle at 100 nM for 4 hrs after NEBD by immunofluorescence analysis; assay type: functional, cell-based
[7] = test system: HeLa; assay: Induction of mitotic arrest in human HeLa cells assessed as increase of cell population in prophase incubated for 6 hrs after thymidine release; assay type: functional, cell-based
[8] = test system: HeLa; assay: Induction of mitotic arrest in human HeLa cells assessed as appearance of shortened spindle formation at 100 nM for 60 mins after thymidine release in the presence of MG132 by immunofluorescence microscopy; assay type: functional, cell-based
[9] = test system: HeLa; assay: Induction of mitotic arrest in human HeLa cells s stably expressing CENPA-GFP assessed as appear on mitotic microtubule at 100 nM for 4 hr release after NEBD by immunofluorescence analysis; assay type: functional, cell-based
[10] = test system: HeLa; assay: Induction of mitotic arrest in human HeLa cells assessed as appearance of collapse spindle formation at 100 nM for 120 mins after thymidine release in the presence of MG132 by immunofluorescence microscopy; assay type: functional, cell-based
[11] = test system: HeLa; assay: Induction of mitotic arrest in human HeLa cells stably expressing CENPA-GFP assessed as appearance of shortened spindle formation at 10 uM incubated for 120 mins by live cell imaging analysis; assay type: functional, cell-based
[12] = test system: HeLa; assay: Induction of mitotic arrest in human HeLa cells assessed as dim kinetochore signal in prometaphase arrested cells at 100 nM for 2 hrs by immunofluorescence analysis; assay type: functional, cell-based
[13] = test system: HeLa; assay: Induction of mitotic arrest in human HeLa cells with stably express GFP-tagged histone H2B assessed as chromosome condensation measured at 730 mins after thymidine release; assay type: functional, cell-based
[14] = test system: HeLa; assay: Induction of mitotic arrest in human HeLa cells assessed as appearance of kinetochore in opposite side of the chromosomes at 100 nM incubated for 2 hrs after cold treatment by transmission electron microscopy; assay type: functional, cell-based
[15] = test system: HeLa; assay: Induction of mitotic arrest in human HeLa cells s stably expressing CENPA-GFP assessed as prophase microtubule asters at 100 nM for 4 hr after release by immunofluorescence analysis; assay type: functional, cell-based
[16] = test system: HeLa; assay: Induction of mitotic arrest in human HeLa cells with expressing H2B-GFP assessed as enter the apoptosis at 100 nM; assay type: functional, cell-based
[17] = test system: HeLa; assay: Induction of mitotic arrest in human HeLa cells with stably express GFP-tagged histone H2B assessed as decrease in prometaphase after thymidine release; assay type: functional, cell-based
[18] = test system: HeLa; assay: Induction of mitotic arrest in human HeLa cells assessed as appearance of kinetochore plates connected to few microtubules and lateral attachment at 100 nM incubated for 2 hrs after cold treatment by transmission electron microscopy; assay type: functional, cell-based
[19] = test system: HeLa; assay: Induction of mitotic arrest in human HeLa cells s stably expressing CENPA-GFP assessed as spindles lost astral microtubules at 10 uM within 10 to 30 mins by live cell imaging analysis; assay type: functional, cell-based; settings: time 10-30 min
[20] = test system: HeLa; assay: Induction of mitotic arrest in human HeLa cells assessed as appearance of spindles lose the focused poles at 100 nM for 30 mins after thymidine release in the presence of MG132 by immunofluorescence microscopy; assay type: functional, cell-based
[21] = test system: HeLa; assay: Induction of mitotic arrest in human HeLa cells s stably expressing CENPA-GFP assessed as appearance of kinetochore pairs lose at 10 uM for 60 mins by live cell imaging analysis; assay type: functional, cell-based
[22] = test system: HeLa; assay: Induction of mitotic arrest in human HeLa cells s stably expressing CENPA-GFP assessed as focus on poles at 10 uM within 10 to 30 mins by live cell imaging analysis; assay type: functional, cell-based; settings: time 10-30 min
[23] = test system: HeLa; assay: Induction of mitotic arrest in human HeLa cells assessed as cell population in prophase incubated for 4 hrs after thymidine release relative to control relative to control; assay type: functional
[24] = test system: HeLa; assay: Induction of mitotic arrest in human HeLa cells assessed as microtubule structures at 100 nM incubated for 2 hrs after cold treatment by immunofluorescence analysis; assay type: functional, cell-based
[25] = test system: HeLa; assay: Induction of mitotic arrest in human HeLa cells s stably expressing CENPA-GFP assessed as spindle poles often broadened at 10 uM for 30 mins by live cell imaging analysis; assay type: functional, cell-based
[26] = test system: HeLa; assay: Induction of mitotic arrest in human HeLa cells with expressing H2B-GFP assessed as cells formed multilobed nuclei at 100 nM in the presence of hesperadin; assay type: functional, cell-based
[27] = test system: HeLa; assay: Induction of mitotic arrest in human HeLa cells assessed as increase of cell population in prophase incubated for 3 hrs after thymidine release; assay type: functional, cell-based
[28] = biological target: Serine/threonine-protein kinase PLK1 (Homo sapiens) (UniProt P53350); settings: HeLa, dose 100.0 nM, time 12.0 min
[29] = test system: HeLa; assay: Induction of mitotic arrest in human HeLa cells assessed as appearance of kinetochore plates arranged on the spindle center at […] incubated for 2 hrs after cold treatment by transmission electron microscopy; assay type: functional, cell-based
[30] = test system: HeLa; assay: Induction of mitotic arrest in human HeLa cells assessed as K-fibers persisted cells at […] incubated for 2 hrs after cold treatment by immunofluorescence analysis; assay type: functional, cell-based
[31] = biological target: Serine/threonine-protein kinase PLK1 (Homo sapiens) (UniProt P53350); settings: HeLa, dose 100.0 nM, time 12.0 min; remark: listed apart in the source
[32] = test system: HeLa; assay: Induction of mitotic arrest in human HeLa cells assessed as appearance of microtubule bundles visible at many kinetochores at […] incubated for 2 hrs after cold treatment by transmission electron microscopy; assay type: functional, cell-based

Sequence of Serine/threonine-protein kinase PLK1 (Homo sapiens) (P53350 whole entry): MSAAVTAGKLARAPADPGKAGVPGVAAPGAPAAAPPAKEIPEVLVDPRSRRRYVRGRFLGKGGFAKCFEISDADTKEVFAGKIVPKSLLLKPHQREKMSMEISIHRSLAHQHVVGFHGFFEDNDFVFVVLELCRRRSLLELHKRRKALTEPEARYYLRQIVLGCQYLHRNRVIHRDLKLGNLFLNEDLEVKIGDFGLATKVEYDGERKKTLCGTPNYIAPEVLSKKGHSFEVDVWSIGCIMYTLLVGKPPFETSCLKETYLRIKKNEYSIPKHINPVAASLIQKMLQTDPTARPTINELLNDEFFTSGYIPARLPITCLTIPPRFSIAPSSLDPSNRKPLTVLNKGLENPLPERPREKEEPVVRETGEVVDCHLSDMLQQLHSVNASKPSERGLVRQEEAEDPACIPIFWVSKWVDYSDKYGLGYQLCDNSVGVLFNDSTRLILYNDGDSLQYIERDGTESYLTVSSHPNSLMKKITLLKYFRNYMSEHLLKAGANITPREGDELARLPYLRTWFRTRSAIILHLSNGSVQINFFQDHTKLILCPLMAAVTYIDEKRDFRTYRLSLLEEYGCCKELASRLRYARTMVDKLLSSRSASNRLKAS

For `CCS(=O)(=O)Nc1ccc2c(c1)/C(=C(\Nc1ccc(CN3CCCCC3)cc1)c1ccccc1)C(=O)N2`, the Activity [1] was “Active” and the inhibition [2] was “Active”.

In the case of `COC(=O)Nc1nc2cc(C(=O)c3cccs3)ccc2[nH]1`, the inhibition [3] is reported as “Active”.

`CC(C)C[C@@H](C=O)NC(=O)[C@H](CC(C)C)NC(=O)[C@H](CC(C)C)NC(=O)OCc1ccccc1` (Cbz-Leu-Leu-Leu-aldehyde) was tested, and the Activity [4] was “Active”.

`CC[C@@H]1C(=O)N(C)c2cnc(Nc3ccc(C(=O)NC4CCN(C)CC4)cc3OC)nc2N1C1CCCC1` [BI-2536] was tested, and the Activity [5] was “Active”, the Activity [6] was “Active” and the Activity [7] was “Active”. For the same molecule, the Activity [8] was “Active”, the Activity [9] was “Active” and the Activity [10] was “Active”. The Activity [11] was “Active”, the Activity [12] was “Active” and the Activity [13] was “Active”. For the same molecule, the Activity [14] was “Active”, the Activity [15] was “inactive” and the Activity [16] was “Active”. The Activity [17] was “Active”, the Activity [18] was “Active” and the Activity [19] was “Active”. The Activity [20] was “Active”, the Activity [21] was “Active” and the Activity [22] was “Active”. For the same molecule, the Activity [23] was 30%, the Activity [24] was “inactive” and the Activity [25] was “Active”. The Activity [26] was “Active” and the Activity [27] was “Active”.

`CCOC(=O)C1=C(C)NC(=S)NC1c1cccc(O)c1` (stereo not drawn) [MONASTROL] was tested, and the inhibition [28] was “Active”, the Activity [29] was “Active” and the Activity [30] was “Active”. For the same molecule, the inhibition [31] was “Active”, the Activity [32] was “Active” and the Activity [23] was 5%.
